Source: patent publication US20230192691A1, “HETEROCYCLIC COMPOUNDS AS BTK INHIBITORS” (Beijing InnoCare Pharma Tech Co., Ltd., priority 2020, published 2023)

Experiments:
[1] = target: T1, human recombinant BTK C481S protein (Homo sapiens, UniProt Q06187, C481S); assay: BTK C481S activity inhibition assay (HTRF in vitro kinase assay); assay type: biochemical; conditions: 35 μM ATP, 1.5 ng/μL BTK C481S
T1 construct: made in house
Experimental: In vitro kinase assay was used to evaluate the effects of compounds of the present invention on BTK C481S activity (Table 1).
(§1) By using the homogeneous time-resolved fluorescence (HTRF) kinase detection kit (Cisbio, catalog number 62TK0PEC), the enzymatic activity of BTK C481S is determined by detecting the phosphorylation level of the substrate in the kinase reaction. The reaction buffer contains the enzyme reaction buffer (1×) from the kit, 5 mM MgCl2, 1 mM DTT, 10 nM SEB, and 0.01% Tween-20; the kinase reaction solution contains human recombinant BTK C481S protein (purified in-house) diluted to 1.5 ng/μL with the reaction buffer; the substrate reaction solution contains biotin-labeled tyrosine kinase substrate diluted to 0.5 μM with the reaction buffer and 35 μM ATP; the detection buffer contains Eu^3+-labeled cage antibody diluted to 0.05 ng/μL and streptavidin-labeled XL665 antibody diluted to 31.25 nM with the reaction buffer; the test compound is dissolved and diluted to 100 μM with DMSO, followed by a 4-fold serial dilution with DMSO to the lowest concentration of 6.1 nM and finally 40-time dilution with the reaction buffer for each concentration point. If the IC50 value of the compound is very low, the initial concentration of the compound is reduced.
(§2) Add 4 μL test compound solution and 2 μL kinase reaction solution to a 384-well detection plate (Corning, catalog number 3674), mix well and incubate at room temperature for 15 minutes; add 4 μL substrate reaction solution and incubate for 50 minutes; add 10 μL detection buffer, mix well and stand for 60 minutes; detect signal at 620 nm and 665 nm using an Envision plate reader (Perkin Elmer). The signal value (absorbance at 665 nm/absorbance at 620 nm) is positively correlated with the degree of phosphorylation of the substrate, thereby detecting the kinase activity of BTK C481S. In this experiment, the group without BTK is the negative control (100% inhibition) and the group with BTK C481 S but no compound is the positive control (0% inhibition). The inhibition curve is plotted and the corresponding IC50 value of the test compound is calculated using XLfit software (TD Business Solutions Ltd., UK).

[2] = target: T2, human-derived recombinant BTK protein (Homo sapiens, UniProt Q06187); assay: BTK activity inhibition assay (HTRF in vitro kinase assay); assay type: biochemical; conditions: 40 μM ATP, 0.2 ng/μL BTK
T2 construct: purchased Carna Biosciences 08-180
T2 sequence (Q06187 whole entry): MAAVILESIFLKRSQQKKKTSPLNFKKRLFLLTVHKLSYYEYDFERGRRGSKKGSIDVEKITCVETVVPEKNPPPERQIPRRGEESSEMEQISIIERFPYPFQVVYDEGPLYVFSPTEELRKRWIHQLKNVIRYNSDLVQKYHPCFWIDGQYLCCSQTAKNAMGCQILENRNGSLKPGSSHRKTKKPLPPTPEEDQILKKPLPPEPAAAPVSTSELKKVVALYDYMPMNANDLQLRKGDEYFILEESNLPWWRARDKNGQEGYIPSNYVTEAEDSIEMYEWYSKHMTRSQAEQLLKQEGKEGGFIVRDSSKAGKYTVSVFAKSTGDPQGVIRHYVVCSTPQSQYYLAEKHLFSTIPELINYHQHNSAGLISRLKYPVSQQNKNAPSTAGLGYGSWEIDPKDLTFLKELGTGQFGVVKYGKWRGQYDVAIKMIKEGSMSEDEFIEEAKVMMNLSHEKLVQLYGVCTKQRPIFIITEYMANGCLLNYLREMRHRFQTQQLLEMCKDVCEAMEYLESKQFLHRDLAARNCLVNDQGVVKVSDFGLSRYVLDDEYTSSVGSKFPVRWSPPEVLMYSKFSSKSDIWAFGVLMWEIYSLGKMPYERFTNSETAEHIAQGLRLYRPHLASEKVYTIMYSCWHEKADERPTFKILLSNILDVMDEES
Experimental: In vitro kinase assay was used to evaluate the effects of compounds of the present invention on BTK activity (Table 1).
as §1, with “BTK” for “BTK C481S”, “SEB” for “SEB,”, “human-derived” for “human”, “(Carna Biosciences, Catalog No. 08-180)” for “(purified in-house)”, “0.2” for “1.5”, “40” for “35”
as §2, with “BTK.” for “BTK C481S.”, “BTK” for “BTK C481 S”, “(ID” for “(TD”

T1 sequence (Q06187 whole entry C481S): as the sequence (Q06187 whole entry) above, with C481S counted along it

Compound: COc1ccc(F)cc1C(=O)NCc1ccc(-c2nc(C34CCC(CO)(CC3)CC4)n3ccnc(N)c23)cc1 [Compound 35, N-(4-(8-amino-3-(4-(hydroxymethyl)bicyclo[2.2.2]octan-1-yl)imidazo[1,5-a]pyrazin-1-yl)benzyl)-5-fluoro-2-methoxybenzamide]
- IC50 [1]: 1.5 nM
- IC50 [2]: 0.6 nM

Compound: COc1ccc(F)cc1C(=O)NCc1ccc(-c2nc(C3CCC(CO)OC3)n3ccnc(N)c23)cc1 (stereo not shown) [Compound 8, N-(4-(8-amino-3-(6-(hydroxymethyl)tetrahydro-2H-pyran-3-yl)imidazo[1,5-a]pyrazin-1-yl)benzyl)-5-fluoro-2-methoxybenzamide]
- IC50 [1]: 0.8 nM
- IC50 [2]: 1.2 nM

Compound: COc1ccccc1C(=O)NCc1ccc(-c2nc(C3CCC(CO)OC3)n3ccnc(N)c23)cc1F (stereo not shown) [Compound 11, N-(4-(8-amino-3-(6-(hydroxymethyl)tetrahydro-2H-pyran-3-yl)imidazo[1,5-a]pyrazin-1-yl)-2-fluorobenzyl)-2-methoxybenzamide]
- IC50 [1]: 3.9 nM
- IC50 [2]: 20 nM

Compound: COc1ccc(F)cc1C(=O)NCc1ccc(-c2nc(C3(C(F)(F)F)CC3)n3ccnc(N)c23)cc1 [Compound 42, N-(4-(8-amino-3-(1-(trifluoromethyl)cyclopropyl)imidazo[1,5-a]pyrazin-1-yl)benzyl)-5-fluoro-2-methoxybenzamide]
- IC50 [1]: 4.3 nM
- IC50 [2]: 1.7 nM

Compound: CNC(=O)[C@H]1CC[C@H](c2nc(-c3ccc(CNC(=O)c4cc(F)ccc4OC)cc3)c3c(N)nccn32)CC1 [Compound 23, N-(4-(8-amino-3-((1r,4r)-4-(methylcarbamoyl)cyclohexyl)imidazo[1,5-a]pyrazin-1-yl)benzyl)-5-fluoro-2-methoxybenzamide]
- IC50 [1]: 3 nM
- IC50 [2]: 1 nM

Compound: COc1ccc(F)cc1C(=O)NCc1ccc(-c2nc([C@@H]3CCNC3)n3ncnc(N)c23)cc1 [Compound 22, (R)-N-(4-(4-amino-7-(pyrrolidin-3-yl)imidazo[5,1-f][1,2,4]triazin-5-yl)benzyl)-5-fluoro-2-methoxybenzamide]
- IC50 [1]: 36 nM
- IC50 [2]: 155 nM

Compound: [2H]C([2H])([2H])Oc1ccc(F)cc1C(=O)NCc1ccc(-c2nc([C@H]3CC[C@H](CO)CC3)n3ncnc(N)c23)cc1 [Compound 18, N-(4-(4-amino-7-((1r,4r)-4-(hydroxymethyl)cyclohexyl)imidazo[5,1-f][1,2,4]triazin-5-yl)benzyl)-5-fluoro-2-(methoxy-d3)benzamide]
- IC50 [1]: 0.8 nM
- IC50 [2]: 0.7 nM

Compound: COc1ccc(C)nc1C(=O)NCc1ccc(-c2nc(C3CCCOC3)n3ccnc(N)c23)cc1 (stereo not shown) [Compound 19, N-(4-(8-amino-3-(tetrahydro-2H-pyran-3-yl)imidazo[1,5-a]pyrazin-1-yl)benzyl)-3-methoxy-6-methylpicolinamide]
- IC50 [1]: 201 nM
- IC50 [2]: 212 nM

Compound: COc1ccc(F)cc1C(=O)NCc1ccc(-n2c(=O)n(C34CCC(C(=O)N5CCOCC5)(CC3)CC4)c3ncnc(N)c32)cc1 [Compound 54, N-(4-(6-amino-9-(4-(morpholine-4-carbonyl)bicyclo[2.2.2]octan-1-yl)-8-oxo-8,9-dihydro-7H-purin-7-yl)benzyl)-5-fluoro-2-methoxybenzamide]
- IC50 [1]: 6.1 nM
- IC50 [2]: 5.8 nM

Compound: COc1ccc(F)cc1C(=O)NCc1ccc(-c2nn([C@H]3CC[C@@H](O)CC3)c3ccnc(N)c23)cc1 [Compound 3, N-(4-(4-amino-1-((1s,4s)-4-hydroxycyclohexyl)-1H-pyrazolo[4,3-c]pyridin-3-yl)benzyl)-5-fluoro-2-methoxybenzamide]
- IC50 [1]: 4.6 nM
- IC50 [2]: 3.2 nM

Compound: COc1ccc(F)cc1C(=O)NCc1ccc(-c2nc([C@]3(C)CC[C@](C)(C(=O)O)CC3)n3ccnc(N)c23)cc1 [Compound 41, (1s,4s)-4-(8-amino-1-(4-((5-fluoro-2-methoxybenzamido)methyl)phenyl)imidazo[1,5-a]pyrazin-3-yl)-1,4-dimethylcyclohexane-1-carboxylic acid]
- IC50 [1]: 5.3 nM
- IC50 [2]: 2.6 nM
